From patent publication US11744273B2, “Sweetness enhancing volatile compositions and methods of increasing perceived sweetness of a comestible” (University of Florida Research Foundation, Inc., priority 2016, dated 2023)

Key:
Type in all cases: in vivo, human
sourness = assay: Blueberry sensory panels; PLS analysis, sourness (Table 7); conditions: response Sourness
Description: Panelists were trained with the scaling methods and were encouraged to return for the remainder of the study. […] Panelists were also asked to rate the intensity of taste and flavor sensations of a hypothetical ideal blueberry on this scale. Each panelist received two to four berries of five to six genotypes in a single panel in a Williams design, which was generated by Compusense 5.6 (Compusense Inc., Guelph, Ontario, Canada). They were asked to eat the blueberries of each genotype at once, and to take a bite of cracker and sip of water in between samples. Ratings were recorded using Compusense software.
Soluble solids content (SSC), titratable acidity (TA), and volatiles were quantified as described above for tomato and strawberries. […] Integrated peak area of each signal was normalized for elution, fitted to relative pure chemical response, corrected for sample mass, and expressed as nanograms per gram fresh weight per hour (ng gFW-1 h-1). Response fitting was calculated using the response factor of pure chemical standards (Sigma-Aldrich, St. Louis, Mo.) run on the same instrument.
Pair-wise correlations and significance between sensory measurements and primary bio-chemical components were calculated, with panelist as a random effect. […] The inclusion of texture liking was evaluated independently given that no explanatory physical measure was made for sample texture. […]

overall liking = assay: Blueberry sensory panels; PLS analysis, overall liking (Table 7); conditions: response Overall Liking
Experimental: (§1) Sensory analysis was conducted similar to described above for tomatoes and strawberries in Examples 1 and 3. […] Panelists were trained with the scaling methods and were encouraged to return for the remainder of the study. Panelists rated overall liking, texture liking, sweetness, sourness, and flavor intensity using hedonic general Labeled Magnitude Scales (gLMS) (−100 to +100; −100=greatest disliking of any kind, +100=greatest liking of any kind) and intensity gLMS (0 to +100; 0=no sensation, 100=most intense sensation of any kind), which allow for improved comparison between panelists and between years (see Bartoshuk, L. M., et al., 2004 and Bartoshuk, L. M., et al., 2005). […] Ratings were recorded using Compusense software.
(§2) Soluble solids content (SSC), titratable acidity (TA), and volatiles were quantified as described above for tomato and strawberries. […] Elutions were run on an Agilent 7890A Gas Chromatograph Flame Ionization Detector (GC-FID) DB-5 column (30 m length×[…]) for quantification and on an Agilent 7890A Gas Chromatograph coupled to an Agilent 5977A Mass Selective Detector (GC/MSD) for qualification (Agilent, Santa Clara, Calif.). Integrated peak area of each signal was normalized for elution, fitted to relative pure chemical response, corrected for sample mass, and expressed as nanograms per gram fresh weight per hour (ng gFW-1 h-1). […]

sweetness = assay: Blueberry sensory panels; PLS analysis, sweetness (Table 7); conditions: for PLS Coefficient: response Sweetness; for independent enhancement of perception of sweetness: multivariate regression analysis
Experimental: Sensory analysis was conducted similar to described above for tomatoes and strawberries in Examples 1 and 3. […] Panelists were trained with the scaling methods and were encouraged to return for the remainder of the study. Panelists rated overall liking, texture liking, sweetness, sourness, and flavor intensity using hedonic general Labeled Magnitude Scales (gLMS) (−100 to +100; −100=greatest disliking of any kind, +100=greatest liking of any kind) and intensity gLMS (0 to +100; 0=no sensation, 100=most intense sensation of any kind), which allow for improved comparison between panelists and between years (see Bartoshuk, L. M., et al., 2004 and Bartoshuk, L. M., et al., 2005). Panelists were also asked to rate the intensity of taste and flavor sensations of a hypothetical ideal blueberry on this scale. Each panelist received two to four berries of five to six genotypes in a single panel in a Williams design, which was generated by Compusense 5.6 (Compusense Inc., Guelph, Ontario, Canada). They were asked to eat the blueberries of each genotype at once, and to take a bite of cracker and sip of water in between samples. Ratings were recorded using Compusense software.
Soluble solids content (SSC), titratable acidity (TA), and volatiles were quantified as described above for tomato and strawberries. The volatiles were collected for two hours via dynamic headspace with HaySep Q 80-100 porous polymer adsorbent (Valco Instruments Company Inc., Houston, Tex.) and eluted with methylene chloride and nonyl acetate as an elution standard. Elutions were run on an Agilent 7890A Gas Chromatograph Flame Ionization Detector (GC-FID) DB-5 column (30 m length×[…]) for quantification and on an Agilent 7890A Gas Chromatograph coupled to an Agilent 5977A Mass Selective Detector (GC/MSD) for qualification (Agilent, Santa Clara, Calif.). Integrated peak area of each signal was normalized for elution, fitted to relative pure chemical response, corrected for sample mass, and expressed as nanograms per gram fresh weight per hour (ng gFW-1 h-1). Response fitting was calculated using the response factor of pure chemical standards (Sigma-Aldrich, St. Louis, Mo.) run on the same instrument.
Pair-wise correlations and significance between sensory measurements and primary bio-chemical components were calculated, with panelist as a random effect. Least Square Means (LSMeans) of the sensory data for each sample were obtained to account of the random effect of panelist. A partial least squares (PLS) analysis was constructed in JMP1 Pro 10 (SAS Institute Inc., Cary, N.C.) to reveal effectors of sensory ratings (see, e.g., Togari N., et al., 1995; Hough, G., et al., 1996; deKermadec, F., et al., 1997; Toscas, P. J., et al., 1999; and Tenenhaus, M., et al., 2005). The response variables (Y) considered corresponded to LSMeans of overall liking, sweetness, sourness, and blueberry flavor intensity. Glucose, fructose, sucrose, TA, pH, and 52 volatile compounds were considered as explanatory variables (X). The inclusion of texture liking was evaluated independently given that no explanatory physical measure was made for sample texture. […] The model was created without texture for analysis.
• Top six and bottom six biochemical measures explaining sensory responses as determined by partial least squares (PLS) analysis. […]

[1] = system: blueberry flavor intensity; assay: Blueberry sensory panels; PLS analysis, blueberry flavor intensity (Table 7); conditions: response Flavor
Experimental: as §1, §2

[2] = system: perceived sweetness intensity; assay: Strawberry consumer panel; initial multiple regression of volatiles against perceived sweetness intensity independent of glucose, fructose or sucrose (Table 5); conditions: standard least squares; for FRUCTOSE t RATIO: sweetness intensity independent of fructose; for GLUCOSE t RATIO: sweetness intensity independent of glucose; for SUCROSE t RATIO: sweetness intensity independent of sucrose
Experimental: Step-wise multiple regressions of all volatile compounds against perceived intensity of sweetness is performed independent of either glucose, fructose, or sucrose concentration, separately (Table 5).
At least 100 grams or seven berries of each sample were removed from 4° C. dark overnight storage prior to volatile collection. Samples were homogenized in a blender prior to splitting into three 15 gram replicates for immediate capturing of volatile emission and remainder of sample frozen in N2 (I) and stored at −80° C. for later sugar and acid quantification.
Oven temperatures programmed from 40° C. (0.5 min hold) at 5° C. min^−1 to 250° C. (4 min hold). Signals captured with a flame ionization detector (FID) at 280° C. Peaks from FID signal were integrated manually with Chemstation B.04.01 software (Agilent Technologies, Santa Clara, Calif.). Volatile emission (ng gFW^−1 h^−1) calculated based on individual peak area relative to sample elution standard peak area.
All consumer panels were approved by the University of Florida Institutional Review Board. […] Ages of panelist ranged from 18 to 71, with a median age of 24. Panelists self-classified themselves as 98 White or Caucasian, 11 Black or African-American, 1 Native American, Alaska Native or Aleutian, 41 Asian/Pacific Islander, and 15 Other. […] Fresh, fully-ripe strawberry fruit was removed from overnight 4° C. dark storage and allowed to warm to room temperature prior to sensory analysis. Each panelist was given one to two whole strawberries for evaluation, depending on cultivar availability. Panelist took a bite of each sample, chewed, and swallowed it. Ratings for overall liking and liking for texture were scaled on hedonic general labeled magnitude scale (gLMS) in the context of all pleasure/displeasure experiences. […] Scales were employed to mediate valid comparisons across subjects and sessions.
For the first analysis, individual volatile compound concentrations were regressed using the “enter” method in SPSS Statistics (IBM Corp, Armonk, N.Y., USA).

[3] = system: strawberry flavor intensity; assay: Strawberry consumer panel; correlation of volatiles with strawberry flavor intensity
Experimental: Quantification of volatiles in an elution was performed on an Agilent 7890A Series gas chromatograph (GC) (carrier gas; He at 3.99 mL min^−1; splitless injector, temperature 220° C., injection volume 2 μl) equipped with a DB-5 column ((5%-Phenyl)-methylpolysiloxane, 30 m length×250 μm i.d.×1 μm film thickness; Agilent Technologies, Santa Clara, Calif., USA). Oven temperatures programmed from 40° C. (0.5 min hold) at 5° C. min^−1 to 250° C. (4 min hold). Signals captured with a flame ionization detector (FID) at 280° C. Peaks from FID signal were integrated manually with Chemstation B.04.01 software (Agilent Technologies, Santa Clara, Calif.). Volatile emission (ng gFW^−1 h^−1) calculated based on individual peak area relative to sample elution standard peak area. GC-Mass Spectrometry (MS) analysis of elution on an Agilent 6890N GC in tandem with an Agilent 5975 MS (Agilent Technologies, Santa Clara, Calif., USA) and retention time comparison with authentic standards (Sigma Aldrich, St Louis, Mo., USA) for volatile identification (Schmelz, 2001).
All consumer panels were approved by the University of Florida Institutional Review Board. Over the course of two annual seasons 166 strawberry consumers (58 male, 108 female) were recruited to evaluate strawberry cultivars. Ages of panelist ranged from 18 to 71, with a median age of 24. Panelists self-classified themselves as 98 White or Caucasian, 11 Black or African-American, 1 Native American, Alaska Native or Aleutian, 41 Asian/Pacific Islander, and 15 Other. An average of 106 (range of 98-113) panelists evaluated between three and five cultivars per session (Tieman, 2012). Fresh, fully-ripe strawberry fruit was removed from overnight 4° C. dark storage and allowed to warm to room temperature prior to sensory analysis. Each panelist was given one to two whole strawberries for evaluation, depending on cultivar availability. Panelist took a bite of each sample, chewed, and swallowed it. Ratings for overall liking and liking for texture were scaled on hedonic general labeled magnitude scale (gLMS) in the context of all pleasure/displeasure experiences. Perceived intensity of sweetness, sourness, and strawberry flavor were scaled in context of all sensory experiences using sensory gLMS (Bartoshuk, 2003; Bartoshuk, 2005; Tieman, 2012). Scales were employed to mediate valid comparisons across subjects and sessions.
Means and standard errors for consumer, physical, and metabolite measurements were determined from all replicates using JMP (Version 8. SAS Institute Inc., Cary, N.C., 1989-2008). Bivariate analysis among individual measurements of samples allowed for linear fit, which includes summary of fit, analysis of variance, t-test, and correlation analysis for density ellipse. […]

| Compound | independent enhancement of perception of sweetness (sweetness) | FRUCTOSE t RATIO [2] | GLUCOSE t RATIO [2] | SUCROSE t RATIO [2] | correlation with flavor intensity [3] | also measured |
| --- | --- | --- | --- | --- | --- | --- |
| CC12CCC(CC1)C(C)(C)O2 [1,8-Cineole] |  |  |  |  |  | PLS Coefficient (sourness): 0.1444; PLS Coefficient (overall liking): −0.1912; PLS Coefficient (sweetness): −0.1925; PLS Coefficient [1]: −0.0876 |
| CCCCCC(C)=O [2-Heptanone] | independently enhancing perception of sweetness |  |  |  |  |  |
| CCCC(=O)OCC [105-54-4] |  | 2.533 | 2.493 | 0.034 | significant positive correlation with flavor intensity |  |
| CCCC(=O)OC [623-42-7] |  | 1.455 | 1.452 | 0.419 | significant positive correlation with flavor intensity |  |
| COC1=C(C)OC(C)C1=O (centres unmarked) [4077-47-8] |  | 2.414 | 2.185 | 0.299 | significant positive correlation with flavor intensity |  |
| C=CC(C)(O)CCC=C(C)C (centres unmarked) [Linalool] |  |  |  |  | significant positive correlation with flavor intensity |  |
| CC(C)=CCC/C(C)=C\C=O [neral] | independently enhancing perception of sweetness |  |  |  |  |  |
| C=C1CC[C@H]2O[C@]2(C)CC[C@@H]2[C@@H]1CC2(C)C [β-Caryophyllene oxide, β-caryophyllene oxide] | independently enhancing perception of sweetness |  |  |  |  | PLS Coefficient (overall liking): 0.1455; PLS Coefficient (sweetness): 0.1418; PLS Coefficient [1]: 0.1527 |
